Measured values as given in patent publication US20260226493A1, “HERBICIDE RESISTANT PLANTS” (SYNGENTA CROP PROTECTION AG, priority 2023, published 2026).

Key:
[1] = system: D4539 (Escherichia coli MTP BioA) containing tobacco plants; assay: Visual herbicide damage score on transgenic tobacco D4539 (pBin TMV MTP EcBioA); type: in vivo; conditions: 600 gai/ha
Excerpt: (§1) In order to determine if the overexpressed gene detailed in Example 3 confers resistance to BIO3-BIO1 inhibiting compounds when expressed in plants, GM tobacco lines were produced and tested with BIO3-BIO1 inhibiting compounds. Transgenic tobacco plants expressing the Escherichia coli BioA gene with (SEQ ID NO:203) and without a mitochondrial signal peptide (SEQ ID NO: 202).
(§2) Populations of transgenic tobacco comprising 20-30 transgenic events per plant transformation constructs were generated as described in Example 1. These lines were clonally propagated and 1 clone per event was sprayed with 600 g ai/ha compound L or A+0.2% Genapol X080 with a spray volume of 200 L/Ha (“g ai/ha” refers to grams of active compound per hectare).
(§3) […] A score of 0 indicates no visible damage or stunting whereas a score of 100 indicates a complete death of the plant. 20 transgenic events (i.e. individual transgenic plants) from each GM tobacco line were transplanted to soil 1 week prior to spraying with BIO3-BIO1 inhibiting compounds. WT tobacco was included as a control.

[2] = system: D4555 (Escherichia coli BioA) containing tobacco plants; assay: Visual herbicide damage score on transgenic tobacco D4555 (pCMP MTP EcBioA); type: in vivo; conditions: 600 gai/ha, replicate clones A, B, C of events 8480, 8526
Excerpt: as §1, §2, §3
• D4555 (Escherichia coli BioA) containing tobacco plants; 04602 (Pantoea ananatis BioA) containing tobacco plants; 04603 (Stenotrophomonas maltophilia BioA) containing tobacco plants; 04609 (Chroococcidiopsis sp. CCMEE 29 BioA) containing tobacco plants; 04611 (Bacillus subtilis BioA) containing tobacco plants; 04606 (Streptomyces viridochromogenes BioA) containing tobacco plants; 04607 (Pedobacter hartonius BioA) containing tobacco plants; 04608 (Chitinophaga filiformis BioA) containing tobacco plants; and 04610 (Tenacibaculum adriaticum BioA) containing tobacco plants, are shown in the “TABLES” section below in Tables 16 to 24 respectively.

## CCOC(=O)c1nn(-c2ccc3c(c2)OC(F)(F)C(F)(F)O3)c2cccc(C(C)=O)c2c1=O [Compound A, ethyl 5-acetyl-4-oxo-1-(2,2,3,3-tetrafluoro-1,4-benzodioxin-6-yl)cinnoline-3-carboxylate]
[1]; D4539 event 8385, 7 DAT
  percentage of damage (herbicide damage score): 5%
[1]; D4539 event 8385, 14 DAT
  percentage of damage (herbicide damage score): 0%
[1]; D4539 event 8385, 21 DAT
  percentage of damage (herbicide damage score): 0%
[1]; D4539 event 8386, 7 DAT
  percentage of damage (herbicide damage score): 3%
[1]; D4539 event 8386, 14 DAT
  percentage of damage (herbicide damage score): 0%
[1]; D4539 event 8386, 21 DAT
  percentage of damage (herbicide damage score): 0%
[1]; D4539 event 8399, 7 DAT
  percentage of damage (herbicide damage score): 2%
[1]; D4539 event 8399, 14 DAT
  percentage of damage (herbicide damage score): 0%
[1]; D4539 event 8399, 21 DAT
  percentage of damage (herbicide damage score): 0%
[1]; D4539 event 8402, 7 DAT
  percentage of damage (herbicide damage score): 2%
[1]; D4539 event 8402, 14 DAT
  percentage of damage (herbicide damage score): 0%
[1]; D4539 event 8402, 21 DAT
  percentage of damage (herbicide damage score): 0%
[1]; D4539 event 8414, 7 DAT
  percentage of damage (herbicide damage score): 7%
[1]; D4539 event 8414, 14 DAT
  percentage of damage (herbicide damage score): 30%
[1]; D4539 event 8414, 21 DAT
  percentage of damage (herbicide damage score): 35%
[1]; D4539 event 8415, 7 DAT
  percentage of damage (herbicide damage score): 7%
[1]; D4539 event 8415, 14 DAT
  percentage of damage (herbicide damage score): 0%
[1]; D4539 event 8415, 21 DAT
  percentage of damage (herbicide damage score): 0%
[1]; D4539 event 8417, 7 DAT
  percentage of damage (herbicide damage score): 2%
[1]; D4539 event 8417, 14 DAT
  percentage of damage (herbicide damage score): 5%
[1]; D4539 event 8417, 21 DAT
  percentage of damage (herbicide damage score): 10%
[1]; D4539 event 8418, 7 DAT
  percentage of damage (herbicide damage score): 4%
[1]; D4539 event 8418, 14 DAT
  percentage of damage (herbicide damage score): 10%
[1]; D4539 event 8418, 21 DAT
  percentage of damage (herbicide damage score): 20%
[1]; D4539 event 8423, 7 DAT
  percentage of damage (herbicide damage score): 2%
[1]; D4539 event 8423, 14 DAT
  percentage of damage (herbicide damage score): 20%
[1]; D4539 event 8423, 21 DAT
  percentage of damage (herbicide damage score): 30%
[1]; D4539 event 8424, 7 DAT
  percentage of damage (herbicide damage score): 55%
[1]; D4539 event 8424, 14 DAT
  percentage of damage (herbicide damage score): 80%
[1]; D4539 event 8424, 21 DAT
  percentage of damage (herbicide damage score): 85%
[1]; D4539 event 8426, 7 DAT
  percentage of damage (herbicide damage score): 2%
[1]; D4539 event 8426, 14 DAT
  percentage of damage (herbicide damage score): 0%
[1]; D4539 event 8426, 21 DAT
  percentage of damage (herbicide damage score): 0%
[1]; D4539 event 8433, 7 DAT
  percentage of damage (herbicide damage score): 4%
[1]; D4539 event 8433, 14 DAT
  percentage of damage (herbicide damage score): 0%
[1]; D4539 event 8433, 21 DAT
  percentage of damage (herbicide damage score): 0%
[1]; D4539 event 8434, 7 DAT
  percentage of damage (herbicide damage score): 4%
[1]; D4539 event 8434, 14 DAT
  percentage of damage (herbicide damage score): 5%
[1]; D4539 event 8434, 21 DAT
  percentage of damage (herbicide damage score): 15%
[1]; D4539 event 8438, 7 DAT
  percentage of damage (herbicide damage score): 10%
[1]; D4539 event 8438, 14 DAT
  percentage of damage (herbicide damage score): 75%
[1]; D4539 event 8438, 21 DAT
  percentage of damage (herbicide damage score): 65%
[1]; D4539 event 8439, 7 DAT
  percentage of damage (herbicide damage score): 2%
[1]; D4539 event 8439, 14 DAT
  percentage of damage (herbicide damage score): 10%
[1]; D4539 event 8439, 21 DAT
  percentage of damage (herbicide damage score): 0%
[1]; D4539 event 8447, 7 DAT
  percentage of damage (herbicide damage score): 2%
[1]; D4539 event 8447, 14 DAT
  percentage of damage (herbicide damage score): 0%
[1]; D4539 event 8447, 21 DAT
  percentage of damage (herbicide damage score): 0%
[1]; D4539 event 8448, 7 DAT
  percentage of damage (herbicide damage score): 2%
[1]; D4539 event 8448, 14 DAT
  percentage of damage (herbicide damage score): 0%
[1]; D4539 event 8448, 21 DAT
  percentage of damage (herbicide damage score): 0%
[1]; D4539 event 8460, 7 DAT
  percentage of damage (herbicide damage score): 3%
[1]; D4539 event 8460, 14 DAT
  percentage of damage (herbicide damage score): 0%
[1]; D4539 event 8460, 21 DAT
  percentage of damage (herbicide damage score): 0%
[1]; D4539 event 8461, 7 DAT
  percentage of damage (herbicide damage score): 15%
[1]; D4539 event 8461, 14 DAT
  percentage of damage (herbicide damage score): 80%
[1]; D4539 event 8461, 21 DAT
  percentage of damage (herbicide damage score): 85%
[1]; D4539 event 8462, 7 DAT
  percentage of damage (herbicide damage score): 2%
[1]; D4539 event 8462, 14 DAT
  percentage of damage (herbicide damage score): 0%
[1]; D4539 event 8462, 21 DAT
  percentage of damage (herbicide damage score): 0%
[2]; 7 DAT
  percentage of damage: 0%
[2]; 14 DAT
  percentage of damage: 0%
[2]; 21 DAT
  percentage of damage: 0%
